From patent US12528814B2, “Bifunctional degraders of interleukin-1 receptor-associated kinases and therapeutic use thereof” (NURIX THERAPEUTICS, INC., priority 2020, dated 2026) come the findings set out here.

A word on the IC50: it is the concentration that inhibits the measured activity by half. By Dmax is commonly meant the greatest extent of degradation seen. The term DC50 denotes the concentration giving 50% degradation.

The target of test [1] is T1, IRAK4 (Homo sapiens (Human), UniProt Q9NWZ3). As to the kind of experiment: IRAK4 Biochemical HTRF Kinase Assay. The note with it: Table 5; multiple runs; read-out: IRAK4 HTRF biochemical: IC50. The essentials: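 IC50 values derive from non-linear regression of sixteen concentrations in duplicate. Kinase reaction ran 90 min at ambient temperature after adding 5 μM STK-S1 substrate, 10 mM ATP and 10 mM MgCl2 (reaction-solution levels, pre-dilution to 10 μl); phospho-peptide detected by HTRF after 60 min.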
Target sequence in this assay (Q9NWZ3 whole entry, species assumed): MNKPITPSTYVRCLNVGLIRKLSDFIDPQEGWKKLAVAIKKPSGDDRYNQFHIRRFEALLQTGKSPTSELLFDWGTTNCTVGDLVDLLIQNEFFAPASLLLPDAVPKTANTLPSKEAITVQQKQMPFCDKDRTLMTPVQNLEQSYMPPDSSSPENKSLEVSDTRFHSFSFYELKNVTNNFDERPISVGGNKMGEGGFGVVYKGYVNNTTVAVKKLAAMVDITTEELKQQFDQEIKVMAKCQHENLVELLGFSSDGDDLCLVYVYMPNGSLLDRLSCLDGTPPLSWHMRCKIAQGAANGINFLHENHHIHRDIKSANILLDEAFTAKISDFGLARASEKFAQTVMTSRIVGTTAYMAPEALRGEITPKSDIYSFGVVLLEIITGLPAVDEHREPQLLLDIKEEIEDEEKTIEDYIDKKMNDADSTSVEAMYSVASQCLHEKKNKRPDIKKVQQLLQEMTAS

Test [2] has as its target T1, IRAK4. As to the kind of experiment: IRAK4 Degradation HiBiT Assay. The following applies: multiple runs, HiBiT-tagged Jurkat cells, 4 hrs; for Dmax: Jurkat, read-out: Cellular IRAK4 HiBiT: Dmax, Table 5; for DC50: read-out: Cellular IRAK4 HiBiT: DC50, Table 5. In general terms: With HiBiT, luminescence reflects the tagged protein that the partner subunit can reach.
Target sequence in this assay (Q9NWZ3 whole entry): as the sequence (Q9NWZ3 whole entry, species assumed) above

Regarding `CNc1cc(-c2ccc3cc(C#N)cnn23)ncc1-c1nnc(N2CCC(NC(=O)CCC(=O)N[C@H](C(=O)N3C[C@H](O)C[C@H]3C(=O)N[C@@H](C)c3ccc(-c4scnc4C)cc3)C(C)(C)C)CC2)s1` [Example 158, N1-(1-(5-(6-(3-cyanopyrrolo[1,2-b]pyridazin-7-yl)-4-(methylamino)pyridin-3-yl)-1,3,4-thiadiazol-2-yl)piperidin-4-yl)-N4—((S)-1-((2S,4R)-4-hydroxy-2-(((S)-1-(4-(4-methylthiazol-5-yl)phenyl)ethyl)carbamoyl)pyrrolidin-1-yl)-3,3-dimethyl-1-oxobutan-2-yl)succinamide], the IC50 at IRAK4 [1] was 1.6 nM. Besides, at IRAK4 [2], the Dmax came out at 74% and the DC50 is 1210 nM.
For `CNc1cc(-c2ccc3cc(C#N)cnn23)ncc1-c1nnc([C@H]2CC[C@H](NC(=O)COc3cc(-c4scnc4C)ccc3CNC(=O)[C@@H]3C[C@@H](O)CN3C(=O)[C@@H](NC(=O)C3(F)CC3)C(C)(C)C)CC2)s1` [Example 159, (2S,4R)—N-(2-(2-(((1r,4S)-4-(5-(6-(3-cyanopyrrolo[1,2-b]pyridazin-7-yl)-4-(methylamino)pyridin-3-yl)-1,3,4-thiadiazol-2-yl)cyclohexyl)amino)-2-oxoethoxy)-4-(4-methylthiazol-5-yl)benzyl)-1-((S)-2-(1-fluorocyclopropane-1-carboxamido)-3,3-dimethylbutanoyl)-4-hydroxypyrrolidine-2-carboxamide], in that order: 2.1 nM, 116% and 111 nM.
For `CNc1cc(-c2ccc3cc(C#N)cnn23)ncc1-c1nnc(N2CCN(C(=O)C[C@H](NC(=O)[C@@H]3C[C@@H](O)CN3C(=O)[C@@H](NC(=O)C3(F)CC3)C(C)(C)C)c3ccc(-c4scnc4C)cc3)CC2)s1` [Example 160, (2S,4R)—N—((S)-3-(4-(5-(6-(3-cyanopyrrolo[1,2-b]pyridazin-7-yl)-4-(methylamino)pyridin-3-yl)-1,3,4-thiadiazol-2-yl)piperazin-1-yl)-1-(4-(4-methylthiazol-5-yl)phenyl)-3-oxopropyl)-1-((S)-2-(1-fluorocyclopropane-1-carboxamido)-3,3-dimethylbutanoyl)-4-hydroxypyrrolidine-2-carboxamide], in that order: 1.1 nM, 97% and 85.8 nM.
With `CNc1cc(-c2ccc3cc(C#N)cnn23)ncc1-c1nnc(N2CCN(CC3CCN(c4ccc(C(=O)NC5CCC(=O)NC5=O)nc4)CC3)CC2)s1` (stereo not drawn) [Example 161, 5-(4-((4-(5-(6-(3-cyanopyrrolo[1,2-b]pyridazin-7-yl)-4-(methylamino)pyridin-3-yl)-1,3,4-thiadiazol-2-yl)piperazin-1-yl)methyl)piperidin-1-yl)-N-(2,6-dioxopiperidin-3-yl)picolinamide], the IC50 at IRAK4 [1] came to 1.4 nM. For the same molecule, on IRAK4 [2], the Dmax was 56% and the DC50 is 24.6 nM.
For `CNc1cc(-c2ccc3cc(C#N)cnn23)ncc1-c1nnc(N2CC3CCC(C2)N3C2CCN(C(=O)c3ccc4c(c3)C(=O)N(C3CCC(=O)NC3=O)C4)CC2)s1` (stereo not drawn) [Example 162, 7-(5-(5-(8-(1-(2-(2,6-dioxopiperidin-3-yl)-3-oxoisoindoline-5-carbonyl)piperidin-4-yl)-3,8-diazabicyclo[3.2.1]octan-3-yl)-1,3,4-thiadiazol-2-yl)-4-(methylamino)pyridin-2-yl)pyrrolo[1,2-b]pyridazine-3-carbonitrile], in that order: 0.4 nM, 110% and 10.5 nM.
For `CNc1cc(-c2ccc3cc(C#N)cnn23)ncc1-c1nnc([C@H]2CC[C@H](N(C)C(=O)C[C@H](NC(=O)[C@@H]3C[C@@H](O)CN3C(=O)[C@@H](NC(=O)C3(F)CC3)C(C)(C)C)c3ccc(-c4scnc4C)cc3)CC2)s1` [Example 163, (2S,4R)—N—((S)-3-(((1r,4S)-4-(5-(6-(3-cyanopyrrolo[1,2-b]pyridazin-7-yl)-4-(methylamino)pyridin-3-yl)-1,3,4-thiadiazol-2-yl)cyclohexyl)(methyl)amino)-1-(4-(4-methylthiazol-5-yl)phenyl)-3-oxopropyl)-1-((S)-2-(1-fluorocyclopropane-1-carboxamido)-3,3-dimethylbutanoyl)-4-hydroxypyrrolidine-2-carboxamide], in that order: 1 nM, 113% and 65.9 nM.
For `CNc1cc(-c2ccc3cc(C#N)cnn23)ncc1-c1nnc(N2CC3CCC(C2)N3C2CCN(C(=O)Cc3ccc4c(c3)CN(C3CCC(=O)NC3=O)C4=O)CC2)s1` (stereo not drawn) [Example 164, 7-(5-(5-(8-(1-(2-(2-(2,6-dioxopiperidin-3-yl)-1-oxoisoindolin-5-yl)acetyl)piperidin-4-yl)-3,8-diazabicyclo[3.2.1]octan-3-yl)-1,3,4-thiadiazol-2-yl)-4-(methylamino)pyridin-2-yl)pyrrolo[1,2-b]pyridazine-3-carbonitrile], in that order: 0.4 nM, 109% and 5.64 nM.
With `CNc1cc(-c2ccc3cc(C#N)cnn23)ncc1-c1nnc(N2CC3CCC(C2)N3C2CCN(Cc3ccc4c(c3)C(=O)N(C3CCC(=O)NC3=O)C4=O)CC2)s1` (stereo not drawn) [Example 165, 7-(5-(5-(8-(1-((2-(2,6-dioxopiperidin-3-yl)-1,3-dioxoisoindolin-5-yl)methyl)piperidin-4-yl)-3,8-diazabicyclo[3.2.1]octan-3-yl)-1,3,4-thiadiazol-2-yl)-4-(methylamino)pyridin-2-yl)pyrrolo[1,2-b]pyridazine-3-carbonitrile], the IC50 on IRAK4 [1] came to 0.4 nM. Further, at IRAK4 [2], the Dmax is 100% and the DC50 amounted to 21 nM.
For `CNc1cc(-c2ccc3cc(C#N)cnn23)ncc1-c1nnc(N2CC3CCC(C2)N3C2CCN(C(=O)C[C@H](NC(=O)[C@@H]3C[C@@H](O)CN3C(=O)[C@@H](NC(=O)C3(F)CC3)C(C)(C)C)c3ccc(-c4scnc4C)cc3)CC2)s1` [Example 166, (2S,4R)—N-((1S)-3-(4-(3-(5-(6-(3-cyanopyrrolo[1,2-b]pyridazin-7-yl)-4-(methylamino)pyridin-3-yl)-1,3,4-thiadiazol-2-yl)-3,8-diazabicyclo[3.2.1]octan-8-yl)piperidin-1-yl)-1-(4-(4-methylthiazol-5-yl)phenyl)-3-oxopropyl)-1-((S)-2-(1-fluorocyclopropane-1-carboxamido)-3,3-dimethylbutanoyl)-4-hydroxypyrrolidine-2-carboxamide], in that order: 1 nM, 114% and 67.7 nM.
On to `CNc1cc(-c2ccc3cc(C#N)cnn23)ncc1-c1nnc([C@H]2CC[C@H](N(C)CC3CCN(c4ccc(C(=O)NC5CCC(=O)NC5=O)nc4)CC3)CC2)s1` (stereo partly drawn) [Example 167, 5-(4-((((1r,4r)-4-(5-(6-(3-cyanopyrrolo[1,2-b]pyridazin-7-yl)-4-(methylamino)pyridin-3-yl)-1,3,4-thiadiazol-2-yl)cyclohexyl)(methyl)amino)methyl)piperidin-1-yl)-N-(2,6-dioxopiperidin-3-yl)picolinamide], for which the IC50 at IRAK4 [1] was 0.5 nM. Besides, on IRAK4 [2], the Dmax was 107% and the DC50 was determined as 20.1 nM.
For `CNc1cc(-c2ccc3cc(C#N)cnn23)ncc1-c1nnc([C@H]2CC[C@H](N(C)C(=O)Cc3ccc4c(c3)CN(C3CCC(=O)NC3=O)C4=O)CC2)s1` (stereo partly drawn) [Example 168, N-((1r,4r)-4-(5-(6-(3-cyanopyrrolo[1,2-b]pyridazin-7-yl)-4-(methylamino)pyridin-3-yl)-1,3,4-thiadiazol-2-yl)cyclohexyl)-2-(2-(2,6-dioxopiperidin-3-yl)-1-oxoisoindolin-5-yl)-N-methylacetamide], the IC50 at IRAK4 [1] was 0.6 nM. On IRAK4 [2], the Dmax was 20% and the half-maximal degradation concentration (DC50) turned out to be 2.63 nM.
For `CNc1cc(-c2ccc3cc(C#N)cnn23)ncc1-c1nnc([C@H]2CC[C@H](N(C)C(=O)C3CCN(c4ccc5c(c4)C(=O)N(C4CCC(=O)NC4=O)C5=O)CC3)CC2)s1` (stereo partly drawn) [Example 169, N-((1r,4r)-4-(5-(6-(3-cyanopyrrolo[1,2-b]pyridazin-7-yl)-4-(methylamino)pyridin-3-yl)-1,3,4-thiadiazol-2-yl)cyclohexyl)-1-(2-(2,6-dioxopiperidin-3-yl)-1,3-dioxoisoindolin-5-yl)-N-methylpiperidine-4-carboxamide], in that order: 0.8 nM, 104% and 32 nM.
For `CNc1cc(-c2ccc3cc(C#N)cnn23)ncc1-c1nnc([C@H]2CC[C@H](N(C)CC3CCN(c4ccc5c(=O)n(C6CCC(=O)NC6=O)ccc5c4)CC3)CC2)s1` (stereo partly drawn) [Example 170, 7-(5-(5-((1r,4r)-4-(((1-(2-(2,6-dioxopiperidin-3-yl)-1-oxo-1,2-dihydroisoquinolin-6-yl)piperidin-4-yl)methyl)(methyl)amino)cyclohexyl)-1,3,4-thiadiazol-2-yl)-4-(methylamino)pyridin-2-yl)pyrrolo[1,2-b]pyridazine-3-carbonitrile], the IC50 on IRAK4 [1] came to 0.5 nM. On IRAK4 [2], the Dmax was determined as 103% and the 50% degradation concentration (DC50) was 29.3 nM.
With `CNc1cc(-c2ccc3cc(C#N)cnn23)ncc1-c1nnc([C@H]2CC[C@H](N(C)C[C@@H]3CCN(c4ccc5c(c4)C(=O)N(C4CCC(=O)NC4=O)C5=O)C3)CC2)s1` (stereo partly drawn) [Example 171, 7-(5-(5-((1S,4r)-4-((((3S)-1-(2-(2,6-dioxopiperidin-3-yl)-1,3-dioxoisoindolin-5-yl)pyrrolidin-3-yl)methyl)(methyl)amino)cyclohexyl)-1,3,4-thiadiazol-2-yl)-4-(methylamino)pyridin-2-yl)pyrrolo[1,2-b]pyridazine-3-carbonitrile], the IC50 at IRAK4 [1] stood at 0.4 nM. Besides, on IRAK4 [2], the Dmax was found to be 77% and the DC50 is 12.9 nM.
